In the SangsterLogP compilation:

test: method code SF, from PMID: 1610484; conditions: not given

For `COCCNC(=S)Cn1cnc([N+](=O)[O-])n1`, which logP is on record?
The logP was 0.25.

With `O=C(NCCCO)C(F)(F)Cn1cnc([N+](=O)[O-])n1` as the compound, how does the logP read?
The logP was -0.63.

Which logP does the source give for `COCCCNC(=S)Cn1cnc([N+](=O)[O-])n1` here?
The logP was 0.63.

Which logP does the source give for `O=C(Cn1cnc([N+](=O)[O-])n1)NCCO` here?
The logP was -1.37.

Which logP does the source give for `COCCNC(=O)C(F)(F)Cn1cnc([N+](=O)[O-])n1` here?
The logP was -0.29.

With `CSCCNC(=O)Cn1cnc([N+](=O)[O-])n1` as the compound, how does the logP read?
The logP was -0.1.

Which logP does the source give for `COCCNC(=O)CCn1cnc([N+](=O)[O-])n1` here?
Its logP is -0.65.

For `COCCCNC(=O)C(F)(F)Cn1cnc([N+](=O)[O-])n1`, which logP is on record?
The logP was 0.01.

Which logP does the source give for `CSCCNC(=O)C(F)(F)Cn1cnc([N+](=O)[O-])n1` here?
The logP was 0.4.

Which logP does the source give for `CSCCNC(=O)CCn1cnc([N+](=O)[O-])n1` here?
The logP was -0.07.

Which logP does the source give for `CSCCCNC(=O)C(F)(F)Cn1cnc([N+](=O)[O-])n1` here?
Its logP is 0.76.

Which logP does the source give for `CSCCCNC(=O)Cn1cnc([N+](=O)[O-])n1` here?
The logP was 0.26.

same assay, conditions: pH 7.4

Which logD does the source give for `COCCNC(=O)Cn1cnc([N+](=O)[O-])n1` here?
The logD was -0.77.

For `COCCCNC(=O)Cn1cnc([N+](=O)[O-])n1`, which logD is on record?
The logD was -0.51.
